# Measurements published in US11873290B2, “Pyridazinone compounds and uses thereof” (Edgewise Therapeutics, Inc., priority 2018, dated 2024).
# pIC50: −log10 of the molar value.
# What was measured:
# zebrafish model of DMD = details: embryos from zebrafish model of DMD; cited from earlier work
# [1] = molecular target: skeletal myofibrils (myosin ATPase activity); assay: Skeletal Myofibril ATPase Assay; type: biochemical; details: PK-LDH coupled, absorbance at 340 nm
# Summary of the method: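 Skeletal myofibril ATPase measured by PK-LDH-coupled NADH depletion at 340 nm, read every 1.5–2 min for 1 h; pCa buffer with PIPES/CaCl2/EGTA, pH 7.0. Rate taken as max–min absorbance, normalised to 1% DMSO vehicle (100%) and no change (0%); IC50 from four-parameter fit, bottom ≥0.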
pIC50 [1],Compound,Protection from pathological muscle derangement (zebrafish model of DMD)
> 5.00,"Cc1ncc(Cn2nc(-c3cnc(OCC(F)(F)F)nc3)ccc2=O)cc1Cl [Compound 87, 2-((5-chloro-6-methylpyridin-3-yl)methyl)-6-(2-(2,2,2-trifluoroethoxy)pyrimidin-5-yl)pyridazin-3(2H)-one]",–
> 5.00,"O=c1ccc(-c2cnc(OCC(F)(F)F)nc2)nn1Cc1cc(C(F)F)no1 [Compound 26, 2-((3-(difluoromethyl)isoxazol-5-yl)methyl)-6-(2-(2,2,2-trifluoroethoxy)pyrimidin-5-yl)pyridazin-3(2H)-one]",–
> 5.00,"O=c1ccc(-c2cnc(OCC(F)(F)F)nc2)nn1Cc1cncc(F)c1 [Compound 6, 2-((5-fluoropyridin-3-yl)methyl)-6-(2-(2,2,2-trifluoroethoxy)pyrimidin-5-yl)pyridazine-3(2H)-one]",–
> 5.00,"N#Cc1cncc(Cn2nc(-c3cnc(OCC(F)(F)F)nc3)ccc2=O)c1 [Compound 51, 5-((6-oxo-3-(2-(2,2,2-trifluoroethoxy)pyrimidin-5-yl)pyridazin-1(6H)-yl)methyl)nicotinonitrile]",–
< 4.00,"O=c1ccc(-c2cnc(OCC(F)(F)F)nc2)nn1Cc1cnccc1O [Compound 78, 2-((4-hydroxypyridin-3-yl)methyl)-6-(2-(2,2,2-trifluoroethoxy)pyrimidin-5-yl)pyridazin-3(2H)-one]",–
> 5.00,"CSCOc1ncc(-c2ccc(=O)n(Cc3cncc(F)c3)n2)cn1 [Compound 108, 2-((5-fluoropyridin-3-yl)methyl)-6-(2-((methylthio)methoxy)pyrimidin-5-yl)pyridazine-3(2H)-one]",–

# The next lines start with the compound.
Compound,pIC50 [1],Protection from pathological muscle derangement (zebrafish model of DMD)
"Cc1ccc(S(=O)(=O)NCc2ccccc2)cc1 [BTS, N-benzyl-p-tolyl-sulfonamide]",–,protect muscles from pathological muscle derangement
"O=c1ccc(-c2cnc(OCC3(F)COC3)nc2)nn1Cc1cncc(F)c1 [Compound 66, 6-(2-((3-fluorooxetan-3-yl)methoxy)pyrimidin-5-yl)-2((5-fluoropyridin-3-yl)methyl)pyridazine-3(2H)-one]",> 5.00,–
O=c1ccc(-c2ccc(OC(F)F)nc2)nn1Cc1nnc(-c2ccc(F)cc2)s1 [Compound 17],> 5.00,–
"COc1ccc(-c2ccc(=O)n(Cc3nc(-c4ccccn4)no3)n2)cc1 [Compound 306, 6-(4-methoxyphenyl)-2-((3-(pyridin-2-yl)-1,2,4-oxadiazol-5-yl)methyl)pyridazin-3(2H)-one]",4.00 to 5.00,–
"Cc1ncc(Cn2nc(-c3cnc(OCC(F)(F)F)nc3)ccc2=O)s1 [Compound 61, 2-((2-methylthiazol-5-yl)methyl)-6-(2-(2,2,2-trifluoroethoxy)pyrimidin-5-yl)pyridazin-3(2H)-one]",> 5.00,–
"CCc1noc(Cn2nc(-c3ccc(OC(F)F)cc3)ccc2=O)n1 [Compound 213, 6-(4-(difluoromethoxy)phenyl)-2-((3-ethyl-1,2,4-oxadiazol-5-yl)methyl)pyridazin-3(2H)-one]",4.00 to 5.00,–
"O=c1ccc(-c2cnc(OCC(F)(F)F)nc2)nn1Cc1nnc(-c2ccnc(O)c2)s1 [Compound 44, 2-((5-(2-hydroxypyridin-4-yl)-1,3,4-thiadiazol-2-yl)methyl)-6-(2-(2,2,2-trifluoroethoxy)pyrimidin-5-yl)pyridazin-3(2H)-one]",4.00 to 5.00,–
"Cc1coc(Cn2nc(-c3ccc(OC(F)F)cc3)ccc2=O)n1 [Compound 218, 6-(4-(difluoromethoxy)phenyl)-2-((4-methyloxazol-2-yl)methyl)pyridazin-3(2H)-one]",4.00 to 5.00,–
"CC(=O)c1cc(Cn2nc(-c3cnc(OCC(F)(F)F)nc3)ccc2=O)on1 [Compound 33, 2-((3-acetylisoxazol-5-yl)methyl)-6-(2-(2,2,2-trifluoroethoxy)pyrimidin-5-yl)pyridazin-3(2H)-one]",> 5.00,–
"O=c1ccc(-c2cnc(OCC(F)(F)F)nc2)nn1Cc1cc(F)c[n+]([O-])c1 [Compound 82, 3-fluoro-5-((6-oxo-3-(2-(2,2,2-trifluoroethoxy)pyrimidin-5-yl)pyridazin-1(6H)-yl)methyl) pyridine 1-oxide]",4.00 to 5.00,–
"O=c1ccc(-c2cnc(NC34CC(C3)C4)nc2)nn1Cc1cncc(F)c1 [Compound 64, 6-(2-(bicyclo[1.1.1]pentan-1-ylamino)pyrimidin-5-yl)-2-((5-fluoropyridin-3-yl)methyl)pyridazine-3(2H)-one]",> 5.00,–
